Test results as given in patent US4442044A, “Process for preparing monoesters and diesters of N-alkyl substituted amino methyl phosphonic acid” (priority 1983, dated 1984).

Columns and labels:
Format in all cases: in vivo
Wild Buckwheat = experiment: post-emergent herbicidal activity, greenhouse; conditions: Table II, 4 WAT
Outline: (§1)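 Seeds or propagules sown in compacted top soil, grown 2–3 weeks in greenhouse, then sprayed with compound solution/suspension containing ~0.4% emulsifier at tabulated rates. Injury scored visually versus untreated controls at ~2 and 4 weeks after treatment, expressed as a herbicidal activity index.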

Downy Brome [1] = experiment: post-emergent herbicidal activity, greenhouse; conditions: Table II, 4 WAT
Outline: as §1

Lambsquarters [2] = experiment: post-emergent herbicidal activity, greenhouse; conditions: 4 WAT
Outline: as §1

Barnyardgrass [3] = experiment: post-emergent herbicidal activity, greenhouse; conditions: 4 WAT
Outline: as §1

Rice = experiment: post-emergent herbicidal activity, greenhouse; conditions: Table II, 4 WAT
Outline: as §1

Quackgrass [4] = experiment: post-emergent herbicidal activity, greenhouse; conditions: Table I, 4 WAT, 11.2 kg/h
Outline: as §1

Velvetleaf [5] = experiment: post-emergent herbicidal activity, greenhouse; conditions: 4 WAT
Outline: as §1

Panicum Spp = experiment: post-emergent herbicidal activity, greenhouse; conditions: Table II, 4 WAT
Outline: as §1

Wheat = experiment: post-emergent herbicidal activity, greenhouse; conditions: Table II, 4 WAT
Outline: as §1

Sugar Beet = experiment: post-emergent herbicidal activity, greenhouse; conditions: Table II, 4 WAT
Outline: as §1

Hemp Sesbania = experiment: post-emergent herbicidal activity, greenhouse; conditions: Table II, 4 WAT
Outline: as §1

Yellow Nutsedge [6] = experiment: post-emergent herbicidal activity, greenhouse; conditions: Table I, 4 WAT, 5.6 kg/h
Outline: as §1

Morningglory [7] = experiment: post-emergent herbicidal activity, greenhouse; conditions: 4 WAT
Outline: as §1

Sorghum = experiment: post-emergent herbicidal activity, greenhouse; conditions: Table II, 4 WAT
Outline: as §1

Cocklebur [8] = experiment: post-emergent herbicidal activity, greenhouse; conditions: Table II, 4 WAT
Outline: as §1

Crabgrass = experiment: post-emergent herbicidal activity, greenhouse; conditions: Table II, 4 WAT
Outline: as §1

Soybean = experiment: post-emergent herbicidal activity, greenhouse; conditions: Table II, 4 WAT
Outline: as §1

Smartweed [9] = experiment: post-emergent herbicidal activity, greenhouse; conditions: 4 WAT
Outline: as §1

Downy Brome [10] = experiment: pre-emergent herbicidal activity, soil incorporation; conditions: Table III, 2 WAT, 11.2 kg/h
Description: (§2) A good grade of top soil is placed in aluminum pans and compacted to a depth of 0.95 to 1.27 cm. from the top of each pan. A predetermined number of seeds or vegetative propagules of each of several plant species are placed on top of the soil in each pan and then pressed down. Herbicidal compositions prepared as in the previous example are applied by admixture with or incorporation in the top layer of soil.
(§3) In this method, the soil required to cover the seeds and propagules is weighed and admixed with a herbicidal composition containing a known amount of the active ingredient (compound of this invention). The pans are then filled with the admixture and leveled. Watering is carried out by permitting the soil in the pans to absorb moisture through apertures in the pan bottoms. The seed and propagule containing pans are placed on a wet sand bench and maintained for approximately two weeks under ordinary conditions of sunlight and watering. At the end of this period, the number of emerged plants of each species is noted and compared to an untreated control.
(§4) The pre-emergent herbicidal activity index used below is based upon average percent control of each species as follows: […]

Lambsquarters [11] = experiment: as above; conditions: Table III, 2 WAT, 11.2 kg/h
Description: as §2, §3, §4

Barnyardgrass [12] = experiment: as above; conditions: Table III, 2 WAT, 11.2 kg/h
Description: as §2, §3, §4

Quackgrass [13] = experiment: as above; conditions: Table III, 2 WAT, 11.2 kg/h
Description: as §2, §3, §4

Velvetleaf [14] = experiment: as above; conditions: Table III, 2 WAT, 11.2 kg/h
Description: as §2, §3, §4

Canada Thistle = experiment: as above; conditions: Table III, 2 WAT, 11.2 kg/h
Description: as §2, §3, §4

Yellow Nutsedge [15] = experiment: as above; conditions: Table III, 2 WAT, 11.2 kg/h
Description: as §2, §3, §4

Morningglory [16] = experiment: as above; conditions: Table III, 2 WAT, 11.2 kg/h
Description: as §2, §3, §4

Johnsongrass = experiment: as above; conditions: Table III, 2 WAT, 11.2 kg/h
Description: as §2, §3, §4

Cocklebur [17] = experiment: as above; conditions: Table III, 2 WAT, 11.2 kg/h
Description: as §2, §3, §4

Smartweed [18] = experiment: as above; conditions: Table III, 2 WAT, 11.2 kg/h
Description: as §2, §3, §4

Q: `CCOC(=O)CNCP(=O)(O)OC(C)C#N` (stereo not drawn) [Example 5, glycine, N-[[(1-cyanoethoxy)hydroxy-phosphinyl]methyl]ethyl ester] was tested. Which “post-emergent herbicidal activity index” value (Wild Buckwheat; 0.28 kg/h) did it give?
A: The value was 0 (0-24% control).

Q: And the “post-emergent herbicidal activity index” value (Wild Buckwheat; 1.12 kg/h)?
A: The value was 2 (50-74% control).

Q: And the “post-emergent herbicidal activity index” value (Wild Buckwheat; 5.6 kg/h)?
A: Its value is 4 (100% control).

Q: What about the “post-emergent herbicidal activity index” value (Downy Brome [1]; 0.28 kg/h) of the same molecule?
A: The value was 1 (25-49% control).

Q: And the “post-emergent herbicidal activity index” value (Downy Brome [1]; 1.12 kg/h)?
A: Its value is 2 (50-74% control).

Q: What about the “post-emergent herbicidal activity index” value (Downy Brome [1]; 5.6 kg/h) of the same molecule?
A: Its value is 3 (75-99% control).

Q: And the “post-emergent herbicidal activity index” value (Lambsquarters [2]; Table I, 11.2 kg/h)?
A: Its value is 4 (100% control).

Q: And the “post-emergent herbicidal activity index” value (Lambsquarters [2]; Table II, 0.28 kg/h)?
A: Its value is 2 (50-74% control).

Q: What about the “post-emergent herbicidal activity index” value (Lambsquarters [2]; Table II, 1.12 kg/h) of the same molecule?
A: The value was 4 (100% control).

Q: What about the “post-emergent herbicidal activity index” value (Lambsquarters [2]; Table II, 5.6 kg/h) of the same molecule?
A: Its value is 4 (100% control).

Q: What about the “post-emergent herbicidal activity index” value (Barnyardgrass [3]; Table I, 5.6 kg/h) of the same molecule?
A: Its value is 4 (100% control).

Q: What about the “post-emergent herbicidal activity index” value (Barnyardgrass [3]; Table I, 11.2 kg/h) of the same molecule?
A: Its value is 4 (100% control).

Q: And the “post-emergent herbicidal activity index” value (Barnyardgrass [3]; Table II, 0.28 kg/h)?
A: Its value is 3 (75-99% control).

Q: And the “post-emergent herbicidal activity index” value (Barnyardgrass [3]; Table II, 1.12 kg/h)?
A: Its value is 3 (75-99% control).

Q: What about the “post-emergent herbicidal activity index” value (Barnyardgrass [3]; Table II, 5.6 kg/h) of the same molecule?
A: The value was 4 (100% control).

Q: What about the “post-emergent herbicidal activity index” value (Rice; 0.28 kg/h) of the same molecule?
A: Its value is 0 (0-24% control).

Q: And the “post-emergent herbicidal activity index” value (Rice; 1.12 kg/h)?
A: Its value is 2 (50-74% control).

Q: What about the “post-emergent herbicidal activity index” value (Rice; 5.6 kg/h) of the same molecule?
A: The value was 4 (100% control).

Q: And the “post-emergent herbicidal activity index” value (Quackgrass [4])?
A: Its value is 4 (100% control).

Q: What about the “post-emergent herbicidal activity index” value (Velvetleaf [5]; Table I, 11.2 kg/h) of the same molecule?
A: Its value is 4 (100% control).

Q: What about the “post-emergent herbicidal activity index” value (Velvetleaf [5]; Table II, 0.28 kg/h) of the same molecule?
A: The value was 1 (25-49% control).

Q: And the “post-emergent herbicidal activity index” value (Velvetleaf [5]; Table II, 1.12 kg/h)?
A: Its value is 2 (50-74% control).

Q: What about the “post-emergent herbicidal activity index” value (Velvetleaf [5]; Table II, 5.6 kg/h) of the same molecule?
A: Its value is 4 (100% control).

Q: What about the “post-emergent herbicidal activity index” value (Panicum Spp; 0.28 kg/h) of the same molecule?
A: The value was 3 (75-99% control).

Q: What about the “post-emergent herbicidal activity index” value (Panicum Spp; 1.12 kg/h) of the same molecule?
A: The value was 4 (100% control).

Q: What about the “post-emergent herbicidal activity index” value (Panicum Spp; 5.6 kg/h) of the same molecule?
A: Its value is 4 (100% control).

Q: And the “post-emergent herbicidal activity index” value (Wheat; 0.28 kg/h)?
A: Its value is 1 (25-49% control).

Q: What about the “post-emergent herbicidal activity index” value (Wheat; 1.12 kg/h) of the same molecule?
A: The value was 3 (75-99% control).

Q: And the “post-emergent herbicidal activity index” value (Wheat; 5.6 kg/h)?
A: Its value is 4 (100% control).

Q: What about the “post-emergent herbicidal activity index” value (Sugar Beet; 0.28 kg/h) of the same molecule?
A: The value was 1 (25-49% control).

Q: What about the “post-emergent herbicidal activity index” value (Sugar Beet; 1.12 kg/h) of the same molecule?
A: Its value is 2 (50-74% control).

Q: And the “post-emergent herbicidal activity index” value (Sugar Beet; 5.6 kg/h)?
A: Its value is 4 (100% control).

Q: What about the “post-emergent herbicidal activity index” value (Hemp Sesbania; 0.28 kg/h) of the same molecule?
A: Its value is 1 (25-49% control).

Q: And the “post-emergent herbicidal activity index” value (Hemp Sesbania; 1.12 kg/h)?
A: The value was 2 (50-74% control).

Q: And the “post-emergent herbicidal activity index” value (Hemp Sesbania; 5.6 kg/h)?
A: The value was 3 (75-99% control).

Q: And the “post-emergent herbicidal activity index” value (Yellow Nutsedge [6])?
A: Its value is 3 (75-99% control).

Q: And the “post-emergent herbicidal activity index” value (Morningglory [7]; Table I, 5.6 kg/h)?
A: Its value is 3 (75-99% control).

Q: What about the “post-emergent herbicidal activity index” value (Morningglory [7]; Table I, 11.2 kg/h) of the same molecule?
A: The value was 4 (100% control).

Q: What about the “post-emergent herbicidal activity index” value (Morningglory [7]; Table II, 0.28 kg/h) of the same molecule?
A: Its value is 2 (50-74% control).

Q: And the “post-emergent herbicidal activity index” value (Morningglory [7]; Table II, 1.12 kg/h)?
A: Its value is 2 (50-74% control).

Q: What about the “post-emergent herbicidal activity index” value (Morningglory [7]; Table II, 5.6 kg/h) of the same molecule?
A: Its value is 4 (100% control).

Q: And the “post-emergent herbicidal activity index” value (Sorghum; 0.28 kg/h)?
A: Its value is 3 (75-99% control).

Q: And the “post-emergent herbicidal activity index” value (Sorghum; 1.12 kg/h)?
A: The value was 3 (75-99% control).

Q: And the “post-emergent herbicidal activity index” value (Sorghum; 5.6 kg/h)?
A: The value was 4 (100% control).

Q: And the “post-emergent herbicidal activity index” value (Cocklebur [8]; 0.28 kg/h)?
A: Its value is 2 (50-74% control).

Q: And the “post-emergent herbicidal activity index” value (Cocklebur [8]; 1.12 kg/h)?
A: Its value is 2 (50-74% control).

Q: What about the “post-emergent herbicidal activity index” value (Cocklebur [8]; 5.6 kg/h) of the same molecule?
A: Its value is 4 (100% control).

Q: What about the “post-emergent herbicidal activity index” value (Crabgrass; 0.28 kg/h) of the same molecule?
A: The value was 3 (75-99% control).

Q: What about the “post-emergent herbicidal activity index” value (Crabgrass; 1.12 kg/h) of the same molecule?
A: Its value is 4 (100% control).

Q: What about the “post-emergent herbicidal activity index” value (Crabgrass; 5.6 kg/h) of the same molecule?
A: Its value is 4 (100% control).

Q: What about the “post-emergent herbicidal activity index” value (Soybean; 0.28 kg/h) of the same molecule?
A: The value was 1 (25-49% control).

Q: And the “post-emergent herbicidal activity index” value (Soybean; 1.12 kg/h)?
A: Its value is 2 (50-74% control).

Q: What about the “post-emergent herbicidal activity index” value (Soybean; 5.6 kg/h) of the same molecule?
A: The value was 4 (100% control).

Q: What about the “post-emergent herbicidal activity index” value (Smartweed [9]; Table I, 5.6 kg/h) of the same molecule?
A: The value was 4 (100% control).

Q: What about the “post-emergent herbicidal activity index” value (Smartweed [9]; Table I, 11.2 kg/h) of the same molecule?
A: The value was 4 (100% control).

Q: What about the “post-emergent herbicidal activity index” value (Smartweed [9]; Table II, 0.28 kg/h) of the same molecule?
A: Its value is 2 (50-74% control).

Q: And the “post-emergent herbicidal activity index” value (Smartweed [9]; Table II, 1.12 kg/h)?
A: The value was 4 (100% control).

Q: What about the “post-emergent herbicidal activity index” value (Smartweed [9]; Table II, 5.6 kg/h) of the same molecule?
A: Its value is 4 (100% control).

Q: What about the “pre-emergent herbicidal activity index” value (Downy Brome [10]) of the same molecule?
A: Its value is 0 (1-24% control).

Q: What about the “pre-emergent herbicidal activity index” value (Lambsquarters [11]) of the same molecule?
A: Its value is 3 (75-100% control).

Q: What about the “pre-emergent herbicidal activity index” value (Barnyardgrass [12]) of the same molecule?
A: The value was 0 (1-24% control).

Q: What about the “pre-emergent herbicidal activity index” value (Quackgrass [13]) of the same molecule?
A: Its value is 2 (50-74% control).

Q: And the “pre-emergent herbicidal activity index” value (Velvetleaf [14])?
A: The value was 0 (1-24% control).

Q: And the “pre-emergent herbicidal activity index” value (Canada Thistle)?
A: Its value is 3 (75-100% control).

Q: And the “pre-emergent herbicidal activity index” value (Yellow Nutsedge [15])?
A: Its value is 1 (25-49% control).

Q: What about the “pre-emergent herbicidal activity index” value (Morningglory [16]) of the same molecule?
A: Its value is 0 (1-24% control).

Q: What about the “pre-emergent herbicidal activity index” value (Johnsongrass) of the same molecule?
A: The value was 0 (1-24% control).

Q: And the “pre-emergent herbicidal activity index” value (Cocklebur [17])?
A: The value was 0 (1-24% control).

Q: And the “pre-emergent herbicidal activity index” value (Smartweed [18])?
A: The value was 0 (1-24% control).
